Measured values as given in patent publication US11713335B2, “Aminocoumarin compounds and methods of their use” (President and Fellows of Harvard College, priority 2018, dated 2023).
In brackets after ≈: the same amount, converted by molar mass. Where two headings read alike, the source gives them in different places.

How the values were obtained:
[1] = test system: S. aureus RN4220; assay: Minimal inhibitory concentration, S. aureus RN4220; type: cell-based; conditions: 16 hour minimal inhibitory concentration at 37° C., read-out: MIC (μM) S. aureus RN4220
How it was run: (§1)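 Broth microdilution, 2-fold series from DMSO stock; inoculum = saturated overnight culture (LB; TSA for S. aureus) diluted 1:100 then 1:100. 37 °C, 16 h, no shaking. OD600 read-out; MIC = lowest conc. inhibiting growth (µM).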

[2] = test system: A. baumannii 19606; assay: Minimal inhibitory concentration, A. baumannii 19606; type: cell-based; conditions: 16 hour minimal inhibitory concentration at 37° C., read-out: MIC (μM) A. baumannii 19606
How it was run: as §1

[3] = test system: K. pneumoniae 700721; assay: Minimal inhibitory concentration, K. pneumoniae 700721; type: cell-based; conditions: 16 hour minimal inhibitory concentration at 37° C., read-out: MIC (μM) K. pneumoniae 700721
How it was run: as §1

[4] = test system: E. cloacae 13047; assay: Minimal inhibitory concentration, E. cloacae 13047; type: cell-based; conditions: 16 hour minimal inhibitory concentration at 37° C., read-out: MIC (μM) E. cloacae 13047
How it was run: as §1

[5] = test system: E. coli MC4100; assay: Minimal inhibitory concentration, E. coli MC4100; type: cell-based; conditions: 16 hour minimal inhibitory concentration at 37° C., read-out: MIC (μM) E. coli MC4100 ara+
How it was run: as §1

[6] = test system: WT E. coli; assay: Minimal inhibitory concentration in wild-type E. coli; type: cell-based, Escherichia coli; conditions: wild-type E. coli, 37° C., 16 hours, read-out: MIC (μM) in WT E. coli
How it was run: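 Broth microdilution: saturated LB overnight culture diluted 1:100 twice, compound serially two-fold diluted across the plate from DMSO stock. Static incubation 16 hours at 37° C, OD600 read; MIC taken as lowest concentration inhibiting growth.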

[7] = test system: S. aureus MW2; assay: Minimal inhibitory concentration, S. aureus MW2; type: cell-based; conditions: 16 hour minimal inhibitory concentration at 37° C., read-out: MIC (μM) S. aureus MW2 (MRSA)
How it was run: as §1

[8] = test system: E. coli 25922; assay: Minimal inhibitory concentration, E. coli 25922; type: cell-based; conditions: 16 hour minimal inhibitory concentration at 37° C., read-out: MIC (μM) E. coli 25922
How it was run: as §1

SMILES | MIC [1] [µM] | MIC [2] [µM] | MIC [3] [µM] | MIC [4] [µM] | MIC [5] [µM] | MIC [6] [µM] | MIC [7] [µM] | MIC [8] [µM] | MIC ([1]; Staphylococcus aureus, RN4220, 16 h) [µM] | MIC ([2]; Acinetobacter baumannii, 19606, 16 h) [µM] | MIC ([3]; Klebsiella pneumoniae, 700721) [µM] | MIC ([4]; Enterobacter cloacae, 13047) [µM] | MIC ([5]; Escherichia coli, MC4100, 16 h) [µM] | MIC ([6]; Escherichia coli) [µM] | MIC ([7]; Staphylococcus aureus, MRSA, 16 h) [µM] | MIC ([8]; Escherichia coli, 25922, 16 h) [µM]
CO[C@@H]1[C@@H](OC(N)=O)[C@@H](O)[C@H](Oc2ccc3c(O)c(NC(=O)c4cccc(-c5cccc(OC(F)(F)F)c5)c4)c(=O)oc3c2C)OC1(C)C [Compound 58] | 0.36 (≈ 0.248 µg/mL) | 18 (≈ 12.4 µg/mL) | >100 | >100 | 89 (≈ 61.3 µg/mL) | 89 (≈ 61.3 µg/mL) | 0.18 (≈ 0.124 µg/mL) | >200 | – | – | – | – | – | – | – | –
CO[C@@H]1[C@@H](OC(N)=O)[C@@H](O)[C@H](Oc2ccc3c(O)c(NC(=O)c4cccc(-c5ccccc5OC(F)(F)F)c4)c(=O)oc3c2C)OC1(C)C [Compound 59] | 9 (≈ 6.2 µg/mL) | >50 | >100 | >100 | 40 (≈ 27.5 µg/mL) | 40 (≈ 27.5 µg/mL) | 5 (≈ 3.44 µg/mL) | >200 | – | – | – | – | – | – | – | –
CO[C@@H]1[C@@H](OC(N)=O)[C@@H](O)[C@H](Oc2ccc3c(O)c(NC(=O)c4cccc(-c5ccccc5C(F)(F)F)c4)c(=O)oc3c2C)OC1(C)C [Compound 60] | 9 (≈ 6.05 µg/mL) | >50 | >100 | >100 | >200 | >300 | 5 (≈ 3.36 µg/mL) | >200 | – | – | – | – | – | – | – | –
CO[C@@H]1[C@@H](OC(N)=O)[C@@H](O)[C@H](Oc2ccc3c(O)c(NC(=O)c4cccc(-c5cccc(C(C)C)c5)c4)c(=O)oc3c2C)OC1(C)C [Compound 61] | 0.39 (≈ 0.252 µg/mL) | 10 (≈ 6.47 µg/mL) | >100 | >100 | 59 (≈ 38.2 µg/mL) | 59 (≈ 38.2 µg/mL) | 0.19 (≈ 0.123 µg/mL) | 77 (≈ 49.8 µg/mL) | – | – | – | – | – | – | – | –
CO[C@@H]1[C@@H](OC(N)=O)[C@@H](O)[C@H](Oc2ccc3c(O)c(NC(=O)c4cccc(C5CCCCC5)c4)c(=O)oc3c2C)OC1(C)C [Compound 62] | 5 (≈ 3.05 µg/mL) | >50 | 82 (≈ 50.1 µg/mL) | >100 | 59 (≈ 36 µg/mL) | 59 (≈ 36 µg/mL) | 3 (≈ 1.83 µg/mL) | 82 (≈ 50.1 µg/mL) | – | – | – | – | – | – | – | –
CO[C@@H]1[C@@H](OC(N)=O)[C@@H](O)[C@H](Oc2ccc3c(O)c(NC(=O)c4cccc(-c5ccccc5[N+](=O)[O-])c4)c(=O)oc3c2C)OC1(C)C [Compound 64] | 77 (≈ 50 µg/mL) | >50 | >100 | >100 | >200 | >300 | 39 (≈ 25.3 µg/mL) | >200 | – | – | – | – | – | – | – | –
CO[C@@H]1[C@@H](OC(N)=O)[C@@H](O)[C@H](Oc2ccc3c(O)c(NC(=O)c4cccc(-c5ccccc5N)c4)c(=O)oc3c2C)OC1(C)C [Compound 65] | 81 (≈ 50.2 µg/mL) | >50 | >100 | >100 | 59 (≈ 36.6 µg/mL) | 59 (≈ 36.6 µg/mL) | 40 (≈ 24.8 µg/mL) | >200 | – | – | – | – | – | – | – | –
CO[C@@H]1[C@@H](OC(N)=O)[C@@H](O)[C@H](Oc2ccc3c(O)c(NC(=O)c4cc(-c5ccccc5)c(OCc5ccccc5)cc4OCc4ccccc4)c(=O)oc3c2C)OC1(C)C [Compound 66] | >100 | >50 | >100 | >100 | >200 | >300 | >100 | >200 | – | – | – | – | – | – | – | –
CO[C@@H]1[C@@H](OC(N)=O)[C@@H](O)[C@H](Oc2ccc3c(O)c(NC(=O)c4cc(-c5ccccc5)c(O)cc4O)c(=O)oc3c2C)OC1(C)C [Compound 67] | 10 (≈ 6.37 µg/mL) | >50 | 79 (≈ 50.3 µg/mL) | >100 | 18 (≈ 11.5 µg/mL) | 18 (≈ 11.5 µg/mL) | 5 (≈ 3.18 µg/mL) | 5 (≈ 3.18 µg/mL) | – | – | – | – | – | – | – | –
CO[C@@H]1[C@@H](OC(N)=O)[C@@H](O)[C@H](Oc2ccc3c(O)c(NC(=O)c4cccc(-c5ccc(Br)cc5)c4)c(=O)oc3c2C)OC1(C)C [Compound 68] | – | – | – | – | – | – | – | – | 0.91 (≈ 0.622 µg/mL) | 18 (≈ 12.3 µg/mL) | > 100 | > 100 | 18 (≈ 12.3 µg/mL) | 18 (≈ 12.3 µg/mL) | 0.91 (≈ 0.622 µg/mL) | 18 (≈ 12.3 µg/mL)
CO[C@@H]1[C@@H](OC(N)=O)[C@@H](O)[C@H](Oc2ccc3c(O)c(NC(=O)c4cccc(Cc5ccccc5)c4)c(=O)oc3c2C)OC1(C)C [Compound 69] | 5 (≈ 3.09 µg/mL) | >50 | >100 | >100 | 89 (≈ 55.1 µg/mL) | 89 (≈ 55.1 µg/mL) | 3 (≈ 1.86 µg/mL) | 81 (≈ 50.1 µg/mL) | – | – | – | – | – | – | – | –
CO[C@@H]1[C@@H](OC(N)=O)[C@@H](O)[C@H](Oc2ccc3c(O)c(NC(=O)c4ccc5ccn(C)c5c4)c(=O)oc3c2C)OC1(C)C [Compound 70] | 86 (≈ 50 µg/mL) | >50 | >100 | >100 | >200 | >300 | 43 (≈ 25 µg/mL) | >200 | – | – | – | – | – | – | – | –
CO[C@@H]1[C@@H](OC(N)=O)[C@@H](O)[C@H](Oc2ccc3c(O)c(NC(=O)c4ccc5ccn(C)c5c4)c(=O)oc3c2C)OC1(C)C.Cl [Compound 71] | 81 | >50 | >100 | >100 | >200 | >300 | 41 | >200 | – | – | – | – | – | – | – | –
CO[C@@H]1[C@@H](OC(N)=O)[C@@H](O)[C@H](Oc2ccc3c(O)c(NC(=O)c4ccc5c(ccn5C)c4)c(=O)oc3c2C)OC1(C)C [Compound 72] | 86 (≈ 50 µg/mL) | >50 | >100 | >100 | >200 | >300 | 43 (≈ 25 µg/mL) | >200 | – | – | – | – | – | – | – | –
CO[C@@H]1[C@@H](OC(N)=O)[C@@H](O)[C@H](Oc2ccc3c(O)c(NC(=O)c4ccc5c(ccn5C)c4)c(=O)oc3c2C)OC1(C)C.Cl [Compound 73] | >100 | >50 | >100 | >100 | >200 | >300 | 81 | >200 | – | – | – | – | – | – | – | –
